In data set [1] the test system is Plasmodium falciparum. The experiment in a line: NOVARTIS: Inhibition of Plasmodium falciparum 3D7 (drug-susceptible) proliferation in erythrocyte-based infection assay. It is filed as functional, organism-based. The following applies: Plasmodium falciparum, 3D7.
Data set [2] in a line: NOVARTIS: Cytotoxicity against human hepatocellular carcinoma cell line (Huh7). It is filed as toxicity, cell-based, Huh-7. The following applies: Huh7 cells (hepatocellular carcinoma cell line).
Data set [3] relates to Plasmodium falciparum. In words: NOVARTIS: Inhibition of Plasmodium falciparum W2 (drug-resistant) proliferation in erythrocyte-based infection assay. The data set is classed as functional, organism-based. The following applies: Plasmodium falciparum, W2; read-out: EC50.

We go through 40 compounds from ChEMBL document CHEMBL1156829 (Proc Natl Acad Sci U S A, 2008).

The structures appear in SMILES notation.

The EC50 is the concentration at which the effect is half-maximal. As usually defined, the CC50 is the concentration that lowers cell viability or growth by half. High values mean lower toxicity to the cells, low ones greater toxicity to the cells. Turning to `CCOC(=O)CSC1=Nc2ccccc2C2=NC(Cc3ccccc3)C(=O)N12` (stereo not given), the EC50 is above 1250 nM with Plasmodium falciparum [1] and 407 nM in the data set on Plasmodium falciparum [3]. In data set [2], this compound had a CC50 above 10000 nM.

For `CC(=NNC(=O)c1ccc([N+](=O)[O-])cc1)c1cccc([N+](=O)[O-])c1`, the EC50 in the data set with Plasmodium falciparum [1] is above 1410 nM; in the data set on Plasmodium falciparum [3] it was above 406 nM. Besides, the CC50 in data set [2] is above 10000 nM.

On to `CCn1c(SCC(=O)Nc2ccc(OC)cc2)nc2ccsc2c1=O`, for which the EC50 in the data set on Plasmodium falciparum [1] was above 1250 nM; in the data set with Plasmodium falciparum [3], 475 nM. This compound also gave a CC50 in data set [2] above 11700 nM.

`CCCCN(C)CCCNC(=O)c1ccc(Cl)c(NC(=O)Nc2ccc(Cl)c(Cl)c2)c1`: the EC50 was 233 nM in the data set with Plasmodium falciparum [1] and 822 nM in the data set on Plasmodium falciparum [3]. In data set [2], this compound yielded a CC50 of 20300 nM.

As for `Oc1ccc(-c2cncc(NCc3ccc(Cl)cc3)c2)cc1`, the EC50 with Plasmodium falciparum [1] stood at 439 nM; with Plasmodium falciparum [3], 405 nM. In addition, the CC50 in data set [2] is above 10000 nM.

Regarding `FC(F)(F)c1cccc(-c2nc3c(s2)CN(C2CCCC2)CC3)c1`, the EC50 is 5370 nM with Plasmodium falciparum [1] and 2950 nM in the data set on Plasmodium falciparum [3]. In addition, the CC50 in data set [2] amounted to 73000 nM.

`Cc1ccc(N=C2S/C(=C\c3ccccc3)C(=O)N2c2ccc(C)cc2)cc1`: the half-maximal effective concentration (EC50) is above 1740 nM in the data set on Plasmodium falciparum [1] and 404 nM with Plasmodium falciparum [3]. This compound also yielded a CC50 in data set [2] above 10000 nM.

As for `Oc1ccc(-c2ccnc3cc(Cl)ccc23)cc1CNCCCn1ccnc1`, the EC50 is 167 nM in the data set on Plasmodium falciparum [1] and 403 nM in the data set with Plasmodium falciparum [3]. The compound further gave a cytotoxic concentration (CC50) in data set [2] above 10000 nM.

As to `CCc1ccc2[nH]c(=O)c(CN(CCN(CC)CC)C(=S)NCCCN(C)C)cc2c1`, the results for the EC50 in the data set on Plasmodium falciparum [1] and in the data set with Plasmodium falciparum [3] were 2270 nM and 1530 nM, respectively. Half-maximal cytotoxicity in data set [2] (CC50) was put at 38200 nM.

On to `CO[C@H]1O[C@@H]2COC(c3ccccc3)O[C@H]2[C@@H](O)[C@@H]1OCc1ccccc1` (stereo not given in full), for which the EC50 with Plasmodium falciparum [1] was found to be 376 nM; in the data set with Plasmodium falciparum [3], 555 nM. Also, the CC50 in data set [2] is above 13800 nM.

For the compound `O=C(N/C(=C/C=C\c1ccccc1)C(=O)N1CCOCC1)c1ccc(Br)cc1`, the concentration for a half-maximal effect (EC50) in the data set with Plasmodium falciparum [1] is above 1300 nM; with Plasmodium falciparum [3], 401 nM. This compound gave a CC50 in data set [2] above 10000 nM.

Consider `CCc1ccc(NC(=O)c2sc3nc(N)c(C#N)c(-c4ccc(OC)c(OC)c4)c3c2N)cc1`, for which the EC50 worked out at 5810 nM with Plasmodium falciparum [1] and 3990 nM with Plasmodium falciparum [3]. Besides, in data set [2], the half-maximal cytotoxic concentration (CC50) is above 100000 nM.

Turning to `CCCCCc1ccc(OCCCC[n+]2cccc(C)c2C)c(CCCCC)c1`, the EC50 was 215 nM in the data set on Plasmodium falciparum [1] and 120 nM in the data set with Plasmodium falciparum [3]. It took 3000 nM to reach half-maximal cytotoxicity in data set [2] (CC50).

With `CCOc1ccc2nc(C)cc(Nc3ccc(N(C)C)cc3)c2c1`, the EC50 in the data set with Plasmodium falciparum [1] was determined as 344 nM; in the data set on Plasmodium falciparum [3] it was 662 nM. Further, the CC50 in data set [2] is 16600 nM.

Turning to `Clc1ccc(-n2cc(-c3ccccc3)c3c(N4CCC(Cc5ccccc5)CC4)ncnc32)cc1`, the EC50 is above 10000 nM with Plasmodium falciparum [1] and above 3990 nM in the data set on Plasmodium falciparum [3]. This compound also yielded a CC50 in data set [2] above 100000 nM.

On to `CC(C)(C)c1ccc2[nH]c3c(c2c1)CCCC3=NO`, for which the values for the EC50 with Plasmodium falciparum [1] and in the data set with Plasmodium falciparum [3] were 5020 nM and 831 nM, respectively. Also, in data set [2], it took 20900 nM to reach half-maximal cytotoxicity (CC50).

`O=C(c1ccc2c(c1)OCO2)N1CCOC(c2ccc(Cl)cc2)C1` (stereo not given): the EC50 in the data set on Plasmodium falciparum [1] is 1630 nM; in the data set on Plasmodium falciparum [3], 4110 nM. This compound registered a CC50 in data set [2] above 100000 nM.

On to `CCN(CC)CCCC(C)Nc1cc(/C=C/c2ccc([N+](=O)[O-])cc2)nc2cc(OC)ccc12` (stereo not given), for which the EC50 in the data set with Plasmodium falciparum [1] worked out at 479 nM; with Plasmodium falciparum [3], 410 nM. This compound displayed a CC50 in data set [2] above 10000 nM.

Consider `COC(=O)c1ccc2c(c1)C(=O)c1ccccc1C2C1c2ccccc2C(=O)c2cc(C(=O)OC)ccc21` (stereo not given), for which the EC50 in the data set on Plasmodium falciparum [1] was found to be 856 nM; in the data set with Plasmodium falciparum [3], 397 nM. The same compound yielded a CC50 in data set [2] above 10000 nM.

Regarding `CCC(=O)N1CCc2cc(S(=O)(=O)N3CCN(c4cccc(C(F)(F)F)c4)CC3)ccc21`, the EC50 in the data set with Plasmodium falciparum [1] came out at 574 nM; in the data set on Plasmodium falciparum [3], 398 nM. This compound also displayed a CC50 in data set [2] above 10000 nM.

As for `O=C1C2C(C(=O)N1c1ccc(Br)cc1)C1C=CC2C12CC2` (stereo not given), the EC50 was above 12500 nM in the data set on Plasmodium falciparum [1] and 3980 nM in the data set on Plasmodium falciparum [3]. Also, in data set [2], the CC50 is above 100000 nM.

On to `CC(C)(C)c1ccc(-c2c[n+](-c3ccccc3)c3n2CCCS3)cc1`, for which the EC50 in the data set with Plasmodium falciparum [1] worked out at 221 nM; in the data set with Plasmodium falciparum [3], 313 nM. Further, in data set [2], half-maximal cytotoxicity (CC50) was put at 7870 nM.

Regarding `Cc1ccc(Nc2nc(NCc3ccco3)c3ccccc3n2)cc1`, the results for the EC50 in the data set on Plasmodium falciparum [1] and with Plasmodium falciparum [3] were 126 nM and 216 nM, respectively. This compound also yielded a CC50 in data set [2] of 5270 nM.

For `COc1cccc(-c2cc(N=C(NCc3ccco3)SC)n[nH]2)c1`, the EC50 in the data set with Plasmodium falciparum [1] was above 11300 nM; in the data set on Plasmodium falciparum [3], 2870 nM. Further, the CC50 in data set [2] stood at 70400 nM.

As to `Ic1ccc(NCc2cn3ccccc3n2)cc1`, the EC50 is 6370 nM in the data set with Plasmodium falciparum [1] and 4070 nM in the data set with Plasmodium falciparum [3]. In data set [2], this compound returned a CC50 above 100000 nM.

For the compound `O=C1c2cccc3c(C4=NN(c5ccccc5)C(c5ccc(Cl)cc5)C4)ccc(c23)C(=O)N1c1ccccc1` (stereo not given), the EC50 with Plasmodium falciparum [1] is above 1250 nM; in the data set on Plasmodium falciparum [3] it was 407 nM. Moreover, the CC50 in data set [2] was above 10000 nM.

Turning to `Cc1ccc(C(=O)Nc2ccc(-c3nc4cc5ccccc5cc4[nH]3)cc2)cc1[N+](=O)[O-]`, the EC50 turned out to be 4300 nM in the data set with Plasmodium falciparum [1] and 3980 nM with Plasmodium falciparum [3]. Also, in data set [2], the CC50 was above 100000 nM.

Consider `O=C(CCl)Nc1ccc2c(c1)OCO2`, for which the EC50 with Plasmodium falciparum [1] was 1900 nM; in the data set on Plasmodium falciparum [3] it was 831 nM. For the same compound, it took 20300 nM to reach half-maximal cytotoxicity in data set [2] (CC50).

Consider `CCOC(=O)c1sc(Nc2c(Cl)cc(S(N)(=O)=O)cc2Cl)nc1C`, for which the EC50 in the data set with Plasmodium falciparum [1] is above 1250 nM; in the data set on Plasmodium falciparum [3] it was 411 nM. For the same compound, the CC50 in data set [2] is above 10000 nM.

Turning to `C=C(C)[C@@H]1CC=C(CN2C[C@H](NC(=O)c3ccc(OC)cc3OC)C[C@H]2C(=O)OC)CC1`, the EC50 came to 815 nM with Plasmodium falciparum [1] and 409 nM in the data set on Plasmodium falciparum [3]. For the same compound, the 50% cytotoxic concentration (CC50) in data set [2] was above 10000 nM.

Regarding `CC1CC2(C)Oc3ccccc3CC2C(C)C1CNCCCN(C)C` (stereo not given), the concentration for a half-maximal effect (EC50) in the data set on Plasmodium falciparum [1] is 241 nM; in the data set on Plasmodium falciparum [3], 192 nM. The compound further had a CC50 in data set [2] of 4790 nM.

For the compound `CCOc1ccc(/C=C(/C#N)c2nc3ccccc3[nH]2)cc1OC`, the values for the EC50 in the data set on Plasmodium falciparum [1] and with Plasmodium falciparum [3] were 1500 nM and 405 nM, respectively. In data set [2], this compound displayed a CC50 above 10000 nM.

For `Cc1nc2c(=O)n(C)c(=O)nc-2n(C)n1`, the EC50 in the data set on Plasmodium falciparum [1] amounted to 593 nM; in the data set on Plasmodium falciparum [3], 398 nM. The CC50 in data set [2] is above 10000 nM.

As for `O=S(=O)(c1ccc(Br)s1)N1CCN(c2ccccc2)CC1`, the results for the EC50 with Plasmodium falciparum [1] and with Plasmodium falciparum [3] were 411 nM and 400 nM, respectively. The compound further returned a CC50 in data set [2] above 10000 nM.

Consider `OCCCNc1cc(-c2ccccn2)nc(-c2ccccn2)n1`, for which the EC50 in the data set on Plasmodium falciparum [1] is above 908 nM; in the data set on Plasmodium falciparum [3], 401 nM. In data set [2], the CC50 is above 10000 nM.

`CCCCCCN(C(=O)COc1ccccc1)C(CC)c1nc2ccccc2c(=O)n1-c1cccc(Cl)c1` (stereo not given): the figures for the EC50 in the data set on Plasmodium falciparum [1] and with Plasmodium falciparum [3] were 2740 nM and 4010 nM, respectively. The CC50 in data set [2] is above 100000 nM.

In the case of `CCc1ccc2[nH]c(=O)c(CN(CCO)C(=S)Nc3ccccc3CC)cc2c1`, the concentration for a half-maximal effect (EC50) in the data set on Plasmodium falciparum [1] came to 2620 nM; in the data set on Plasmodium falciparum [3], 1910 nM. In addition, the CC50 in data set [2] is 48000 nM.

For `CCN(CC)CCCNC(=S)N(CCc1cccc(C)c1)Cc1cc2cc(OC)c(OC)cc2[nH]c1=O`, the EC50 in the data set on Plasmodium falciparum [1] was 2430 nM; with Plasmodium falciparum [3], 747 nM. Also, the CC50 in data set [2] worked out at 18600 nM.

Regarding `COC(=O)c1sc2nc(CN(C)CC(C)C)ccc2c1NC(=O)c1ccc(C)s1`, the EC50 with Plasmodium falciparum [1] was above 12500 nM; in the data set with Plasmodium falciparum [3] it was 4010 nM. The compound also returned a CC50 in data set [2] above 100000 nM.

On to `O=C(c1ccccc1)N1CCc2nc(Cc3ccc(F)cc3Cl)sc2C1`, for which the EC50 in the data set with Plasmodium falciparum [1] is 4400 nM; in the data set with Plasmodium falciparum [3], 2360 nM. Moreover, the CC50 in data set [2] is above 57400 nM.
